Among the data in PubChem BioAssay AID179 (DTP/NCI, 2004) are EC50, IC50 and outcome values, retold here.

Each structure is given as a SMILES string. Activity calls are given as the source filed them.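 Rule for the calls: active = compounds giving half or more protection of infected cells from virus-caused growth loss, again on retest; inactive = the rest.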 Some results are limits rather than exact numbers.

This assay deals with CEM cells HIV-1 protection, formazan growth assay. The experiment in a line: NCI AIDS Antiviral Assay. Particulars: for IC50: measured here: growth of uninfected CEM cells. A digest of the protocol:
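Human CEM cells, uninfected and HIV-1-infected, received five drug concentrations, and growth was read by soluble formazan assay. Compounds giving at least 50% protection were retested; reproducible 100% protection defined confirmed active.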

Usually EC50 stands for the midpoint of the concentration-response curve. Usually IC50 stands for the concentration at which inhibition is half-maximal. A lower IC50 goes with greater potency. As for `CCOC(=O)C(=C(SC)SC)c1nn2c(=O)cc(C)nc2s1`, the EC50 was over 200 µM and the IC50 stood at 17.8 µM. On the same counts, the results for `COc1ccc2c(=O)c3c([nH]c2c1)OCC3=O` are over 100 µM and over 100 µM. Take `CCOC(=O)[C@@]12C(=O)[C@@H](C)CC[C@@H]1[C@@H](C)C[C@H]2C=C(C)C`: the EC50 is over 200 µM and the IC50 worked out at 110 µM. For `CCN(CC)C1=Nc2ccccc2N(c2ccccc2)C(=S)C1` the same measures were over 200 µM and 85.1 µM.

In the case of `C=C=C(CC)C(C(=O)OC)N(CC)CC` (stereo not given), the result was inactive. In the case of `CC(=O)OCC1OC(Nc2[nH]c(=O)n(C)c(=O)c2N=O)C(OC(C)=O)C(OC(C)=O)C1OC(C)=O` (stereo not given), the EC50 is over 200 µM and the IC50 is over 200 µM. Consider `O=c1ssc(=Nc2ccc(Cl)cc2)n1-c1ccc(Cl)cc1`, for which the EC50 was over 200 µM and the IC50 was found to be 8.91 µM. Regarding `NC(CC1=CS(=O)(=O)c2ccc(Cl)cc21)C(=O)O` (stereo not given), the EC50 was over 200 µM and the IC50 was over 200 µM. For `O=C(Nc1ccccc1)[C@H](O)[C@@H](O)C(=O)Nc1ccccc1`, the EC50 was over 60.3 µM and the IC50 turned out to be 49 µM. For `C=C[C@]1(O[Si](C)(C)C)C[C@@]2(C(=O)OCC)C(O)C(=O)N3CCc4cc(OC)c(OC)cc4[C@]312` (stereo not given in full), the EC50 was over 200 µM and the IC50 is over 200 µM. Consider `C(=N\NC1=NCCCCN1)/c1ccc2ccccc2c1`, for which the EC50 was over 200 µM and the IC50 came out at 33.1 µM.

For the compound `CCCc1cc(-c2ccc(-c3cc(CCC)c(C=O)[nH]3)s2)[nH]c1C=O`, the EC50 was over 5.62 µM and the IC50 worked out at 1.62 µM. Take `C[C@H]1C[C@H]2[C@@H]3CCC4=CC(=O)C=C[C@]4(C)[C@@]3(F)[C@@H](O)C[C@]2(C)C1=O`: the result was inactive.

Turning to `O=C(O)CCc1ccc2c(c1)C(=O)CC2`, the EC50 is over 200 µM and the IC50 is over 200 µM. As to `O=c1cc([O-])[n+](C2OC(CO)C(O)C2O)c2sccn12` (stereo not given), the EC50 is over 63.1 µM and the IC50 is over 63.1 µM.

In the case of `CSc1nc2c(nc(N)n2C2OC(CO)C(O)C(O)C2O)c(=O)[nH]1` (stereo not given), the result was inactive.

For the compound `COC(=O)C(=O)CC(=O)CCn1[nH]c(=O)c(Cl)c(Cl)c1=O`, the EC50 is over 389 µM and the IC50 turned out to be 295 µM.

Consider `CCC[CH2][Sn]1([CH2]CCC)[O]C(=O)c2cccc(C)c2[O]1`, for which the outcome was inactive. As to `O=C1Cc2ccccc2N1C1c2ccccc2C=Cc2ccccc21`, the EC50 is over 200 µM and the IC50 amounted to 21.4 µM. Regarding `CCOC1C2c3cc4c(cc3CC(C#N)(c3ccccc32)N1C(=O)c1ccccc1)OCO4` (stereo not given), the result was inactive. For `c1csc(-c2ccc(-c3ccsc3)s2)c1`, the EC50 was over 200 µM and the IC50 is over 200 µM. As for `Cc1[nH]c2ccccc2c1C1Cc2ccccc2N1C(=O)/C(C#N)=C/c1ccccc1` (stereo not given), the EC50 was over 12.9 µM and the IC50 stood at 2.29 µM.

`CCCCCCc1cc(S(=O)(=O)O)c(O)cc1O`: the EC50 is over 200 µM and the IC50 is over 200 µM.

Turning to `CC(C)=CCCc1c(C)ccc2c1C(=O)C(=O)C(C(C)C)=C2O`, the EC50 is over 57.5 µM and the IC50 was 33.9 µM. For `COC(=O)CCC1=NCC(C)(C)O1` the same measures were over 200 µM and over 200 µM.

Turning to `Nc1ncc(Br)c(NCC2(CO)CCC2)n1`, the EC50 was over 200 µM and the IC50 worked out at 15.8 µM.

Regarding `c1cc2nc(c1)CSCCCCCCCCSC2`, the EC50 was over 35.5 µM and the IC50 is over 35.5 µM. With `CN(C)c1ccc(/C=C(\C#N)C(=O)c2ccccc2)cc1`, the EC50 was over 29.5 µM and the IC50 is 6.17 µM. On the same counts, the results for `CCCCCCCCCCCCCCC(C(=O)O)C(=O)O` are over 832 µM and 398 µM.

Take `CN1c2ccccc2N(C(=O)c2ccccc2)C(CC(=O)O)c2cccn21` (stereo not given): the EC50 is over 692 µM and the IC50 stood at 288 µM. Take `Nc1c(-c2ccccc2)oc2ccccc2c1=O`: the EC50 is over 200 µM and the IC50 was over 200 µM. For the compound `CC(=O)c1c(O)cc2c(c1O)C1CC(C)(CCC1=C(C)C)O2` (stereo not given), the EC50 is over 186 µM and the IC50 worked out at 26.3 µM.

As for `CCOc1ccc(N=Nc2c(-c3ccccc3)nn(C(=O)CC(=O)Nc3cccc(C)c3)c2-c2ccccc2)cc1`, the EC50 was over 47.9 µM and the half-inhibitory concentration (IC50) is over 47.9 µM.

On to `CN1CCCc2cc(/C=C\c3ccnc4ccccc34)ccc21`, for which the EC50 is 0.0631 µM and the IC50 worked out at 4.37 µM. For `Cc1[nH]c2ccccc2c1C(c1c(C)[nH]c2ccccc12)c1c(C)[nH]c2ccccc12` the same measures were 0.0631 µM and 58.9 µM. For `CCOCN1COCN=C1NC#N`, the EC50 was over 490 µM and the concentration for half-maximal inhibition (IC50) was over 490 µM. As to `CC(=O)c1c(O)c2ccccc2oc1=O`, the EC50 was over 200 µM and the 50% inhibitory concentration (IC50) turned out to be 120 µM. Turning to `CCOC(=O)C(=Cc1cccnc1C)C(=O)OCC`, the EC50 was over 692 µM and the IC50 was 8.32 µM.

As to `COC(=O)N1C[C@@]2(C=CC3(CC2)OCCO3)c2ccccc21`, the EC50 was over 200 µM and the IC50 came out at 3.55 µM. For `CC(C)(C)[Si](C)(C)OCC1OC(n2ccc(=O)[nH]c2=O)/C(=C\C#N)C1O[Si](C)(C)C(C)(C)C` (stereo not given) the same measures were over 200 µM and 35.5 µM. For `CCCCCCCCCCCCN1C(=O)c2ccccc2[Se]1=O` (stereo not given) the same measures were over 2.75 µM and over 2.75 µM. Take `Cc1ccc(NC=O)cc1F`: the outcome was inactive. With `CC(=O)/C(=C/c1cccc(C#N)c1)C(=O)c1ccccc1`, the EC50 was over 36.3 µM and the IC50 amounted to 17.4 µM. On the same counts, the results for `O=C(C(=O)n1ccc2ccccc21)n1ccc2ccccc21` are over 200 µM and 178 µM.

Take `CCOC(=O)C1C(=O)[C@H](C(=O)OC)C2CCCC3CCCC1N32` (stereo not given in full): the EC50 is over 200 µM and the IC50 is over 200 µM. For `CC(=O)OC1(C#N)CC2OC1C1C2N=NN1C(=O)OC(C)(C)C` (stereo not given), the EC50 was over 209 µM and the IC50 was 28.8 µM.

For the compound `NC(=S)N/N=C1\CCCC1C(O)(C(F)(F)Cl)C(F)(F)Cl` (stereo not given), the EC50 was over 200 µM and the IC50 was 38.9 µM. Regarding `Cc1[nH]c(=O)[nH]c(=O)c1/C=C/C(=O)NC(CO)CS(=O)Cc1ccccc1` (stereo not given), the EC50 is over 200 µM and the IC50 was over 200 µM. In the case of `O=[N+]([O-])c1ccc(C2=Nc3ccccc3N=C(c3ccccc3O)C2)cc1`, the EC50 is over 200 µM and the IC50 is over 200 µM. Regarding `CC1(C)SC2C(NC(=O)C(N)c3ccccc3)C(=O)N2C1C(=O)O` (stereo not given), the EC50 is over 200 µM and the IC50 is over 200 µM. In the case of `OC1C(O)C2CC1C1C2C2(Cl)C(Cl)=C(Cl)C1(Cl)C2(Cl)Cl` (stereo not given), the EC50 was over 200 µM and the IC50 was determined as 12.6 µM. In the case of `COc1ccccc1N=Nc1c(S(=O)(=O)O)cc2cc(NC(=O)Nc3ccc4c(O)c(N=Nc5c(N)ccc6cc(S(=O)(=O)O)ccc56)c(S(=O)(=O)O)cc4c3)ccc2c1O`, the outcome was active. Take `N=C(N)SCC1OCOC1C1OCOC1CSC(=N)N` (stereo not given): the EC50 was over 776 µM and the IC50 was over 776 µM.

In the case of `CC(=O)C1(N=Nc2ccc(S(=O)(=O)Nc3ccccn3)cc2)CCOC1=O` (stereo not given), the EC50 is over 200 µM and the IC50 was over 200 µM. `c1ccc2c(c1)Nc1nsnc1N2`: the EC50 is over 27.5 µM and the IC50 came out at 7.08 µM.

Turning to `C[C@]12CC[C@H](O)CC1=CC[C@@H]1C2CC[C@@]2(C)C1CC[C@@H]2c1nc(-c2ccccc2)cs1` (stereo not given in full), the EC50 was over 15.5 µM and the IC50 is over 15.5 µM. As to `CC1=NN(c2nc(N)nc(CSc3cc(Cl)c(C)cc3S(N)(=O)=O)n2)C(C)(C)C1`, the outcome was inactive. For the compound `CN(C)c1ccc(/C=C(\NC(=O)c2ccccc2)C(=O)Nc2ccccc2C(=O)NN2C(=O)CSC2c2ccc(N(C)C)cc2)cc1` (stereo not given), the EC50 was over 50.1 µM and the IC50 was over 50.1 µM. On to `CNc1ccc2ncccc2c1[N+](=O)[O-]`, for which the EC50 is over 46.8 µM and the 50% inhibitory concentration (IC50) was over 46.8 µM. For the compound `Cc1ccc(-n2c(=S)n(-c3ccccc3C)c3nc4ccccc4nc2/c3=N\Nc2ccc(Cl)cc2)cc1`, the EC50 is 117 µM and the IC50 amounted to 123 µM.

Consider `COc1ccccc1/C=C1\C(=O)N(C(=O)c2ccc(NC(C)=O)cc2)N=C1C`, for which the EC50 was over 19.1 µM and the IC50 was over 19.1 µM. `O=C(Nc1ccccc1-c1ccccc1)c1ccccc1`: the EC50 is over 200 µM and the IC50 came to 91.2 µM. Take `CC1=C(C(=O)Nc2ccccc2)C(c2ccccc2Cl)C(C(=O)Nc2ccccc2)=C(C)N1`: the outcome was inactive.

For `O=C(OC1CCCCC1)c1cc(NC(=S)c2ccccc2F)ccc1Cl`, the EC50 was 0.0363 µM and the IC50 was 18.2 µM. For `CCO[C@@H]1OC(=O)[C@H]2C(c3ccccc3Cl)=NO[C@@H]12`, the EC50 was over 178 µM and the IC50 is over 178 µM. With `N=c1ccn2c(n1)OC1C(OC(=O)C34CC5CC(CC(C5)C3)C4)C(COC(=O)C34CC5CC(CC(C5)C3)C4)OC12` (stereo not given), the result was inactive.

Regarding `Cc1nc(N)nc(CCC(=O)Nc2cccc(C(F)(F)F)c2)c1-c1ccc(Cl)cc1`, the EC50 was over 302 µM and the IC50 was over 302 µM.

Consider `O=C1C(=Cc2c[nH]c3ccccc23)C(=O)c2ccccc21`, for which the EC50 was over 200 µM and the IC50 stood at 191 µM. For `O=c1sc2c(s1)SSSSS2` the same measures were over 50.1 µM and 15.8 µM. With `S=c1n(-c2ccc(Cl)cc2)c2nc3ccccc3nc(/c2=N\Nc2ccc(Br)cc2)n1-c1ccccn1`, the EC50 is over 32.4 µM and the IC50 was 30.9 µM.

Consider `Cc1ccc(S(=O)(=O)SC/C=C\CSS(=O)(=O)c2ccc(C)cc2)cc1`, for which the outcome was inactive. For `Oc1ccc(N=C2N=c3c(c4ccccc4c4ccccc34)=N2)c2ccccc12`, the EC50 is over 200 µM and the IC50 worked out at 4.57 µM. For `COc1cccc(OC)c1/C=C1\OC(=O)c2cccc(OC)c21` the same measures were over 20 µM and 1.17 µM.
